Measurements from patent US20220380341A1, “INHIBITORS OF HIV-1 NEF FOR THE TREATMENT OF HIV DISEASE” (priority 2018, published 2022).
Like-named read-outs stand apart in the source and are kept apart here.

Experiments:
[1] = tested on: HIV-1NL4-3; assay: HIV-1 infectivity assay in TZM-bl reporter cell line (LTR-luciferase, 48 h); type: cell-based; details: Human immunodeficiency virus 1, TZM-bl
Method in brief: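 Nef-dependent infectivity in TZM-bl cells: HIV-1NL4-3 infection with 1 μM compound, luciferase read at 48 h, normalized against DMSO wild-type and Nef-defective controls. Compound cytotoxicity in uninfected cells measured by Cell Titer Blue.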

[2] = tested on: TZM-bl cell line; type: cell-based; details: human, 1 μM
Method in brief: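 TZM-bl cells (HIV-1 LTR-luciferase) infected with HIV-1NL4-3 with compound at 1 μM; luciferase read 48 h later. Percent inhibition normalized to DMSO wild-type infection (0%) and Nef-defective HIV-1 infection (100% of Nef-dependent effect). Viability in uninfected TZM-bl cells by Cell Titer Blue.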

[3] = biological target: HIV-1 NefNL4-3 (Human immunodeficiency virus type 1 group M subtype B, UniProt P03406, A33V/T15A/T51N/V11I); assay: Surface plasmon resonance binding to recombinant full-length Nef (NL4-3); details: for RU30/RUNef (extent of binding): response units at 30 μM relative to Nef immobilized on the SPR chip; for Nef NL4-3 Binding, SPR 1:1 or 2-site fitting KD1: 1:1 Langmuir fit where the KD2 cell says '1 to 1 fitting', else 2-site fit
[4] = 1.0 μM, TZM-bl reporter cell line, Table 4, read-out: % Infectivity Inhibition
[5] = KD, M, Table 4, SPR fit 1:1 Langmuir, KD = koff/kon
[6] = Table 4, 1:1 Langmuir fit, T = 1/koff
[7] = 48 h, Table 1, TZM-bl cells, 1 μM, 48 h, 100% = Nef-defective HIV-1, read-out: HIV-1 Infectivity % Inhibition Norm. to Δ-Nef @ 1 μM

**Q.** With CN(C)C(=O)N1CCCC(Cc2c(C3CC3)nn(-c3nc4ccccc4[nH]3)c2O)C1 (centres unmarked) [Compound I-782, 3-{[1-(1H-1,3-benzodiazol-2-yl)-3-cyclopropyl-5-hydroxy-1H-pyrazol-4-yl]methyl}-N,N-dimethylpiperidine-1-carboxamide] as the molecule, how does the inhibition at 1 µM [1, 4] read?
**A.** 61.1%

**Q.** And the “% Cell Viability” value [2]?
**A.** 98.8%

**Q.** And the Kd [3, 5]?
**A.** 9.41 µM

**Q.** What about the “T, minutes (residence time)” value [3, 6] of the same molecule?
**A.** 3.62E + 00 minutes

**Q.** What about the “RU30/RUNef (extent of binding)” value [3] of the same molecule?
**A.** 5.13E- 03

**Q.** C[C@@](O)(C(=O)N1CCC(CCc2c(C3CC3)nn(-c3nc4ccccc4[nH]3)c2O)CC1)C(F)(F)F [Compound I-783, (2R)-1-(4-{2-[1-(1H-1,3-benzodiazol-2-yl)-3-cyclopropyl-5-hydroxy-1H-pyrazol-4-yl]ethyl}piperidin-1-yl)-3,3,3-trifluoro-2-hydroxy-2-methylpropan-1-one] was tested. Which inhibition at 1 µM [1, 4] did it give?
**A.** 5.4%

**Q.** And the “% Cell Viability” value [2]?
**A.** 100%

**Q.** What about the Kd [3, 5] of the same molecule?
**A.** 3.37 µM

**Q.** And the “T, minutes (residence time)” value [3, 6]?
**A.** 4.08E + 00 minutes

**Q.** What about the “RU30/RUNef (extent of binding)” value [3] of the same molecule?
**A.** 1.38E- 03

**Q.** How did the inhibition at 1 µM [1, 4] turn out when Oc1c(CCc2ccc(F)cc2)c(C2CCN(Cc3ccccn3)CC2)nn1-c1nc2ccccc2[nH]1 [Compound I-802, 1-(1H-1,3-benzodiazol-2-yl)-4-[2-(4-fluorophenyl)ethyl]-3-{1-[(pyridin-2-yl)methyl]piperidin-4-yl}-1H-pyrazol-5-ol] was run?
**A.** 4.4%

**Q.** And the inhibition at 1 µM [1, 7]?
**A.** 4.4%

**Q.** What about the “% Cell Viability” value [2] of the same molecule?
**A.** 99.3%

**Q.** What about the “Percent Viability @ 1 μM (TZM-bl cells)” value [2] of the same molecule?
**A.** 99.3%

**Q.** And the Kd [3]?
**A.** 0.447 µM

**Q.** What about the Kd ([3]; KD, M, Table 4, SPR fit 2-step induced fit, KD = koff/kon × koff2/(koff2 + kon2)) of the same molecule?
**A.** 0.182 µM

**Q.** And the Kd ([3]; Nef NL4-3 Binding, SPR 2-state fitting KD, Table 1, 2-step induced-fit model)?
**A.** 0.182 µM

**Q.** And the “T, minutes (residence time)” value ([3]; Table 4, 2-step induced fit, T = 1/koff2)?
**A.** 2.21E + 01 minutes

**Q.** And the “RU30/RUNef (extent of binding)” value [3]?
**A.** 2.48E- 03

**Q.** What does the source list for Oc1c(CCc2ccc(F)cc2)c(C2CCN(Cc3cccnc3)CC2)nn1-c1nc2ccccc2[nH]1 [Compound I-803, 1-(1H-1,3-benzodiazol-2-yl)-4-[2-(4-fluorophenyl)ethyl]-3-{1-[(pyridin-3-yl)methyl]piperidin-4-yl}-1H-pyrazol-5-ol]?
**A.** inhibition at 1 µM [1, 4]: 3.2%; inhibition at 1 µM [1, 7]: 3.2%; % Cell Viability [2]: 100%; Percent Viability @ 1 μM (TZM-bl cells) [2]: 100.4%; Kd [3]: 0.817 µM; Kd [3, 5]: 0.817 µM; T, minutes (residence time) [3, 6]: 1.59E + 01 minutes; RU30/RUNef (extent of binding) [3]: 1.69E- 03

**Q.** What does the source list for Oc1c(CCc2ccc(F)cc2)c(C2CCN(Cc3ccncc3)CC2)nn1-c1nc2ccccc2[nH]1 [Compound I-804, 1-(1H-1,3-benzodiazol-2-yl)-4-[2-(4-fluorophenyl)ethyl]-3-{1-[(pyridin-4-yl)methyl]piperidin-4-yl}-1H-pyrazol-5-ol]?
**A.** inhibition at 1 µM [1, 7]: 50%; Percent Viability @ 1 μM (TZM-bl cells) [2]: 97.5%; Kd [3]: 0.0908 µM

**Q.** What does the source list for Oc1c(CCc2ccc(F)cc2)c(C2CCN(CC3CCOCC3)CC2)nn1-c1nc2ccccc2[nH]1 [Compound I-806, 1-(1H-1,3-benzodiazol-2-yl)-4-[2-(4-fluorophenyl)ethyl]-3-{1-[(oxan-4-yl)methyl]piperidin-4-yl}-1H-pyrazol-5-ol]?
**A.** inhibition at 1 µM [1, 4]: 20.6%; inhibition at 1 µM [1, 7]: 20.6%; % Cell Viability [2]: 99.1%; Percent Viability @ 1 μM (TZM-bl cells) [2]: 99.1%; Kd [3]: 9.9 µM; Kd [3, 5]: 9.9 µM; T, minutes (residence time) [3, 6]: 1.79E + 00 minutes; RU30/RUNef (extent of binding) [3]: 7.48E- 04

**Q.** Which results are given for Oc1c(CCc2ccc(F)cc2)c(CC2CCN(Cc3ccccn3)CC2)nn1-c1nc2ccccc2[nH]1 [Compound I-807, 1-(1H-1,3-benzodiazol-2-yl)-4-[2-(4-fluorophenyl)ethyl]-3-({1-[(pyridin-2-yl)methyl]piperidin-4-yl}methyl)-1H-pyrazol-5-ol]?
**A.** inhibition at 1 µM [1, 7]: 40.4%; Percent Viability @ 1 μM (TZM-bl cells) [2]: 99.0%; Nef NL4-3 Binding, SPR 1:1 or 2-site fitting KD1 ([3]; Table 1): No Interaction

**Q.** Which inhibition at 1 µM [1, 7] does the source give for Oc1c(CCc2ccc(F)cc2)c(CC2CCN(Cc3cccnc3)CC2)nn1-c1nc2ccccc2[nH]1 [Compound I-808, 1-(1H-1,3-benzodiazol-2-yl)-4-[2-(4-fluorophenyl)ethyl]-3-({1-[(pyridin-3-yl)methyl]piperidin-4-yl}methyl)-1H-pyrazol-5-ol] here?
**A.** 12.8%

**Q.** And the “Percent Viability @ 1 μM (TZM-bl cells)” value [2]?
**A.** 102.6%

**Q.** What about the “Nef NL4-3 Binding, SPR 1:1 or 2-site fitting KD1” value ([3]; Table 1) of the same molecule?
**A.** No Interaction
